# From patent publication US20230140132A1, “ARGINASE INHIBITORS AND METHODS OF USE” (MERCK SHARP & DOHME LLC, priority 2020, published 2023)
# Tests used:
# [1] = tested on: rabbit and human penile corpus cavernosum; conditions: Cox et al. 1999; cited from earlier work
# [2] = tested on: airway hyperresponsiveness; conditions: guinea pigs, nebulizer treatment, allergic asthma model; cited from earlier work
# [3] = tested on: opossum internal anal sphincter muscle; conditions: Baggio et al. 1999; cited from earlier work
# [4] = tested on: experimental autoimmune encephalomyelitis; conditions: Xu et al. 2003; cited from earlier work
# [5] = tested on: corpus cavernosum of the diabetic person; conditions: ex vivo, Bivalacqua et al. 2001; cited from earlier work
# [6] = tested on: engorgement response in the genitalia; conditions: live female rabbits; Cama et al. 2003; cited from earlier work
# erectile response = conditions: live male rabbits; Cama et al. 2003; cited from earlier work
# Arginase = target: T1, Arginase (Homo sapiens, UniProt P05089); test: Arginase Thioornithine Generating Assay (TOGA); type: biochemical; conditions: recombinant arginase 1.88 nM, thioarginine substrate, fluorescence readout
# T1 sequence (P05089 1-322): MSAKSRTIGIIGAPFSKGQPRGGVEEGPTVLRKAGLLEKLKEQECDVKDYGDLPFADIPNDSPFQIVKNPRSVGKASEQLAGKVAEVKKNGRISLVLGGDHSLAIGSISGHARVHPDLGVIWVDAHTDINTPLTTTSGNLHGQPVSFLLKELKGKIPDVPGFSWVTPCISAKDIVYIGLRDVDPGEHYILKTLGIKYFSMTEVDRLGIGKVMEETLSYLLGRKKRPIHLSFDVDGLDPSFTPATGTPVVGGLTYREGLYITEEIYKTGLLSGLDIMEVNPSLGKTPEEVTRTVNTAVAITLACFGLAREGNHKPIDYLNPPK
# Description: Compounds were serially diluted in ten 3-fold steps in DMSO starting from 10 mM DMSO stocks. Compound dilutions or DMSO alone were then dispensed from the dilution plate into a Greiner black 384-well assay plate (catalog #781086) using an Echo 555 acoustic liquid handler (Labcyte).
# Arginase protein was recombinantly expressed in Escherichia coli. Purified protein was then diluted in assay buffer (50 mM Tris pH 7.5, 50 mM NaCl, 1 mM manganese chloride, 0.05% bovine serum albumin to obtain a final Arginase concentration of 1.88 nM. Arginase solution (20 μL) or buffer alone (20 μL) were dispensed to wells of the assay plate using a BioRAPTR liquid dispenser (Beckman Coulter). Assay plates containing compound and arginase enzyme were incubated at room temperature for 30 minutes. Afterwards, 5 μL of 2.5 mM thioarginine (Cayman Chemicals) in assay buffer were added to each well of the assay plate using a BioRAPTR liquid dispenser. Plates were incubated at room temperature for 60 minutes and reactions were quenched by addition of 15 μL of 200 uM 7-Diethylamine-3-(4-maleimidophenyl)-4-methylcoumarin (Sigma Chemical) in 70% ethanol. Plates were briefly shaken to mix and the fluorescence was measured in an Spectramax plate reader (Molecular Devices) with a 410 nm excitation wavelength and an 490 nm emission wavelength.
# Potencies were calculated by […] to the four parameter logistic IC50 equation.
smiles,measurement,setting,value
"N[C@@H](CCCCB(O)O)C(=O)O [ABH, (S)-2-amino-6-boronohexanoic acid]",nitric oxide-dependent relaxation of corpus cavernosum tissue,[1],enhances the nitric oxide-dependent relaxation of this tissue
same,airway hyperresponsiveness,[2],prevents airway hyperresponsiveness
same,relaxation of internal anal sphincter muscle,[3],relax this muscle
same,disease score,[4],improves the disease score of animals
same,nitric oxide biosynthesis,[5],restores nitric oxide biosynthesis
same,engorgement response in the genitalia,[6],enhances the engorgement response
same,erectile response,erectile response,enhances the erectile response
"O=C(O)[C@H]1NC[C@@H]2NCC[C@@]21CCCB(O)O [Example 1, (3aS,4S,6aR)-3a-(3-boronopropyl)octahydropyrrolo[3,4-b]pyrrole-4-carboxylic Acid]",IC50,Arginase,1.61 nM
"C[C@]1(CCCB(O)O)[C@@H](C(=O)O)N[C@@H]2CC[C@@H]21 [Example 17, (1R,3S,4R,5R)-4-(3-boronopropyl)-4-methyl-2-azabicyclo[3.2.0]heptane-3-carboxylic Acid]",IC50,Arginase,66.5 nM
"C[C@]1(CCCB(O)O)[C@@H](C(=O)O)N[C@H]2C[C@H]21 [Example 24, (1S,3S,4R,5S)-4-(3-boronopropyl)-4-methyl-2-azabicyclo[3.1.0]hexane-3-carboxylic Acid]",IC50,Arginase,5740 nM
"O=C(O)[C@H]1NC[C@@H]2NC[C@@]21CCCB(O)O [Example 34, (1S,2S,5R)-1-(3-boronopropyl)-3,6-diazabicyclo[3.2.0]heptane-2-carboxylic Acid]",IC50,Arginase,104 nM
